This note sets out measurements from PubChem BioAssay (NCI).

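Grown in 96-well plates, cells were treated for 48 hours with each compound at five concentrations. Insufficient inhibition: endpoint recorded as highest concentration tested. TGI is the concentration that stops growth completely.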

What all share (assay): NCI anticancer screen, dose series, 48 h
The subject of assay [1] is EKVX NSCLC.
Assay [2] deals with MALME-3M melanoma.
The test system of assay [3] is MDA-N.
For assay [4], the system named is OVCAR-3 ovarian.
In assay [5] the test system is RXF 393 renal.
Assay [6] relates to SF-268 CNS.
In assay [7] the test system is SF-539 CNS.
Assay [8] deals with SK-OV-3 ovarian.
The subject of assay [9] is SN12C renal.
The subject of assay [10] is SNB-19 CNS.
Assay [11] concerns U251 CNS.

For the compound `O=C(/C=C1\C[C@H]2C=Nc3ccccc3C(=O)N2C1)NCCCCNC(=O)/C=C1\C[C@H]2C=Nc3ccccc3C(=O)N2C1`, the TGI in [1] amounted to 33.7 µM; in [2], 18 µM; in assay [3], 24.3 µM; in assay [4], 36.3 µM; in assay [5], 19.2 µM; in [6], 25 µM. Besides, the TGI in assay [7] was determined as 30.5 µM; in [8] it was 34.4 µM; in [9], 11.4 µM; in [10] it was 31.8 µM; in assay [11] it was 11.3 µM.
Take `CN(C)Cc1cc(C(C)(C)C)ccc1-c1ccc(C(C)(C)C)cc1CN(C)C`: the TGI in assay [1], in [2], in [3], in assay [4], in [5] and in assay [6] was > 100 µM throughout. Also, the TGI in [7], in assay [8], in assay [9], in assay [10] and in [11] was > 100 µM throughout.
On to `Cc1ccc2c(c1)C(=O)N1CCC[C@H]1C=N2`, for which the TGI was 71 µM in assay [1]; 35.2 µM in assay [2]; 37.6 µM in [3]; > 67.2 µM in assay [4]; 16.1 µM in assay [5]; > 100 µM in assay [6]. Further, the TGI is 37.3 µM in assay [7]; > 100 µM in assay [8]; > 100 µM in assay [9]; > 100 µM in assay [10]; > 85.2 µM in [11].
As for `CCN(CC)CCCn1c(=O)c2ccccc2n2c3c(=O)n(C)c(=O)n(C)c3nc12`, the TGI came to 36.6 µM in assay [1]; 21.4 µM in assay [2]; 28 µM in assay [3]; 33.6 µM in [4]; 45.8 µM in assay [5]; 23 µM in assay [6]. Besides, the TGI in [7] was 22 µM; in [8], 14.7 µM; in assay [9], 18.6 µM; in [10] it was 35.3 µM; in assay [11], 23.3 µM.
For `O=C1CC(=O)NC(=NN2C(=O)/C(=C/c3ccccc3)N=C2c2ccccc2)N1`, the TGI in assay [2], in assay [3], in assay [4], in [5], in assay [6] and in assay [7] was > 100 µM in each case. Also, the TGI in assay [8], in assay [9] and in assay [11] was > 100 µM each time.
For the compound `O=C1O[C@H]2[C@H](O)[C@@H](OC(=O)c3cc(O)c(O)c4c3[C@@H]3C1=CC(=O)C(O)(O)C3(O)O4)[C@H](OC(=O)c1cc(O)c(O)c(O)c1)O[C@@H]2CO` (stereo partly drawn), the TGI in assay [1], in assay [2], in assay [3], in [4], in assay [5] and in assay [6] was > 100 µM in each case. The TGI in assay [8], in assay [9], in assay [10] and in assay [11] was > 100 µM each time.
`O=C(Nc1cc2c(=O)oc3ccccc3c2oc1=O)c1cccnc1`: the TGI in assay [1], in assay [2], in [3], in assay [4], in assay [5] and in assay [7] was > 100 µM in each case. The TGI in [8], in assay [9], in assay [10] and in assay [11] was > 100 µM each time.
For `N#CC(C#N)=C(N)/C(C#N)=C/c1ccc2ccccc2n1`, the TGI in [1] is > 100 µM; in assay [2], > 100 µM; in assay [3], > 100 µM; in assay [4] it was 33.4 µM; in assay [5] it was 42.1 µM; in [6] it was > 100 µM. Besides, the values for the TGI in assay [8], in assay [9] and in [10] were > 100 µM, > 100 µM and 77.7 µM, respectively.
For `C/C=C\C(CC(=O)NCCC1CN(S(=O)(=O)C(F)(F)F)c2ccccc21)CC(=O)OC` (stereo not drawn), the TGI in [1] was > 100 µM; in assay [2], 45.9 µM; in [3], > 100 µM; in assay [4], > 100 µM; in [5], > 100 µM; in assay [8], > 100 µM. The TGI in assay [10] and in assay [11] was > 100 µM throughout.
In the case of `CC1(C)CC(=O)C2=C(C1)NC1=C(C(=O)CC(C)(C)C1)C2c1ccc([N+](=O)[O-])cc1`, the TGI in assay [1], in assay [3], in assay [4], in assay [5], in [6] and in assay [7] was > 100 µM in each case. Further, the TGI in [8], in assay [9], in assay [10] and in [11] was > 100 µM throughout.
As for `CCN(CC)CCN1C(=O)c2c(c(-c3ccccc3)c3ccccc3c2-c2ccccc2)C1=O`, the TGI in assay [1], in [2], in assay [3], in [5], in assay [6] and in assay [7] was > 100 µM in each case. The TGI in [8], in [9], in [10] and in assay [11] was > 100 µM each time.
On to `CN1CCCCC(C#N)(c2ccccc2)CC1` (stereo not drawn), for which the TGI in assay [1], in [2], in assay [3], in [5], in [6] and in [8] was > 100 µM throughout. The TGI in assay [10] and in [11] was > 100 µM each time.
Turning to `CCCCOC(=O)NC(Nc1cccc(C(F)(F)F)c1)(C(F)(F)F)C(F)(F)F`, the TGI in assay [1], in [2], in assay [3], in assay [4], in [5] and in assay [6] was > 100 µM each time. The TGI in assay [7], in assay [9], in [10] and in assay [11] was > 100 µM each time.
Regarding `CCOC(=O)Cc1csc2[n+]1C(=O)/C(=C\c1cccc(Cl)c1Cl)S2`, the TGI in [1] was found to be 50.7 µM; in assay [3], 56.6 µM; in assay [4], 42.1 µM; in assay [5] it was 40.4 µM; in assay [6], 80.2 µM; in assay [7], 47.1 µM. The TGI in [8] was determined as 43.1 µM; in assay [9], 37.8 µM; in assay [10] it was 88 µM; in assay [11], 64.6 µM.
As to `O=C(Nc1c(C(F)(F)F)cc(-c2ccccc2)[nH]c1=O)N1CCOCC1`, the TGI in assay [1], in assay [2], in [3], in [4], in assay [5] and in assay [6] was > 100 µM throughout. Moreover, the TGI in assay [8], in assay [9], in assay [10] and in [11] was > 100 µM throughout.
Regarding `COC(C(=O)C(O)C(C)O)C1CC2C=C3C=C(OC4CC(OC5CC(O)C(OC)C(C)O5)C(OC(C)=O)C(C)O4)C(C)C(=O)C3=C(O)C2=C(O)C1OC1CC(OC2CC(OC3CC(C)(O)C(OC(=O)C(C)C)C(C)O3)C(O)C(C)O2)C(O)C(C)O1` (stereo not drawn), the TGI in [1], in [2], in [3], in assay [5], in assay [6] and in [7] was < 0.01 µM in each case. In addition, the TGI in assay [8] was > 100 µM; in assay [9], < 0.01 µM.
Take `COc1cc(NC(C)=O)ccc1C(=O)NN1C(=O)C(Cl)C1c1ccco1` (stereo not drawn): the TGI in [1], in assay [2], in assay [3], in assay [4], in assay [5] and in assay [6] was > 100 µM throughout. Also, the TGI in assay [7], in assay [9] and in [10] was > 100 µM each time.
As to `Cc1ccc(S(=O)(=O)N2C[C@](O)(c3ccccc3)[C@H]2C)cc1`, the TGI in [1], in [2], in [3], in [5], in assay [6] and in assay [7] was > 100 µM throughout. In addition, the TGI in assay [8], in assay [9], in [10] and in assay [11] was > 100 µM in each case.
As to `Cc1c2c(n(CCc3ccccc3)c1C)N(C)N=C(C#N)S2(=O)=O`, the TGI in [1], in [3], in [4], in assay [5], in assay [6] and in assay [7] was > 100 µM in each case. The TGI in assay [8], in assay [9], in assay [10] and in assay [11] was > 100 µM throughout.
In the case of `CCOC(=O)c1sc(N/N=C2\NC(=O)/C(=C/c3ccc([N+](=O)[O-])cc3)S2)nc1C`, the TGI is 43.4 µM in assay [1]; 56.2 µM in [3]; 49.9 µM in assay [4]; 84 µM in assay [5]; > 100 µM in assay [6]; 40.7 µM in assay [7]. Also, the TGI is > 100 µM in [8], 88.2 µM in assay [9], > 100 µM in [10] and > 100 µM in assay [11].
Consider `C/C1=C/C(C)CC(C)OC(=O)C(C)NC(=O)C(Cc2ccc(O)c(I)c2)N(C)C(=O)C(C)NC(=O)C(C)C1` (stereo not drawn), for which the TGI in assay [2] was 3.45 µM; in [3], 30.7 µM; in [4], < 0.01 µM; in [5], < 0.0106 µM; in assay [6], 0.347 µM; in assay [7] it was 1.61 µM. Also, the TGI in assay [9] is > 89.2 µM; in assay [10] it was > 100 µM; in assay [11], 0.892 µM.
Turning to `CCOC(=O)c1c(C)cc(=O)n2c1[nH]c1ccccc12`, the TGI in assay [1], in assay [2], in assay [3], in [4], in assay [5] and in [7] was > 100 µM each time. The TGI in [8], in assay [9], in assay [10] and in [11] was > 100 µM each time.
Take `Cn1c(-c2cccs2)cc(-c2cccs2)c1-c1ccco1`: the TGI in assay [1] is > 100 µM; in assay [3], > 100 µM; in [4] it was > 100 µM; in assay [5], > 82.7 µM; in assay [6] it was > 100 µM; in assay [7], > 100 µM. Moreover, the TGI in assay [8], in [9], in assay [10] and in [11] was > 100 µM each time.
As to `[N-]=[N+]=Nc1c(C=O)c(=O)n(-c2ccccc2)c2ccccc12`, the TGI in [2] is 45.3 µM; in [3], > 100 µM; in assay [4], 32.4 µM; in [5], 27.2 µM; in [6], > 100 µM; in assay [7] it was > 100 µM. Moreover, the TGI in [8], in [9], in [10] and in [11] was > 100 µM each time.
In the case of `Cc1ccc(N=N/C(=N/NC(=O)c2cc(Cl)ccc2C(=O)c2ccccc2)c2ccc(N(CCC#N)CCC#N)cc2C)cc1`, the TGI in assay [1] was 84.7 µM; in [2] it was 32.4 µM; in assay [3] it was > 100 µM; in assay [4], 16.4 µM; in [5] it was 7.24 µM; in assay [6], > 100 µM. Moreover, the TGI was 40 µM in assay [8], 87.7 µM in assay [9], > 100 µM in [10] and > 100 µM in [11].
As to `CC(=O)Oc1cc2c(c3ncccc13)OC(C)(C)C2`, the TGI in [2] is 23.4 µM; in assay [3] it was 10.9 µM; in assay [4], 55 µM; in [5], 26.8 µM; in assay [6], 25.9 µM; in assay [7], 26.9 µM. Moreover, the TGI in assay [8] is > 100 µM; in assay [9], 25.9 µM; in assay [11], 31.8 µM.
